Data as given in patent US20050209278A1, “Piperidinyl- and piperazinyl-sulfonylmethyl hydroxamic acids and their use as protease inhibitors” (priority 2002, published 2005).
Counter-ions that a name gives are not always drawn. Like-named read-outs stand apart in the source and are kept apart here.

Tests used:
Format in all cases: biochemical
MMP-1 = target: T1, MMP-1 (Homo sapiens, UniProt P03956); experiment: MMP-1 inhibition (in vitro Ki)
T1 construct: made in house; host or cells: MMP-1-transfected HT-1080 cells (spent media)
T1 sequence (P03956 100-469): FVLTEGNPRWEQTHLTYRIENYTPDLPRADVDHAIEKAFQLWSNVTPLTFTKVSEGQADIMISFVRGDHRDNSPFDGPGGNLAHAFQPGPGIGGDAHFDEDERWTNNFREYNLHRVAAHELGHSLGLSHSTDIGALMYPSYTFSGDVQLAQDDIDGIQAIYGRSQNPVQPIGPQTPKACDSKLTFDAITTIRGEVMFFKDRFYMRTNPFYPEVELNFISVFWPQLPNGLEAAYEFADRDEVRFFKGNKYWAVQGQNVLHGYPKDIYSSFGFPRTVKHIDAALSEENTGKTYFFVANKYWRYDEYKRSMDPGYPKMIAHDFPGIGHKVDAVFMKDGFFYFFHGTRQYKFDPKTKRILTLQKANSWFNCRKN

MMP-13 = target: T2, MMP-13 (Homo sapiens, UniProt P45452); experiment: MMP-13 inhibition (in vitro Ki)
T2 construct: made in house; host or cells: baculovirus / insect cells

MMP-2 = target: T3, MMP-2 (Homo sapiens, UniProt P08253); experiment: MMP-2 inhibition (in vitro Ki)
T3 construct: made in house; host or cells: MMP-2-transfected p2AHT2 cells
T3 sequence (P08253 110-660): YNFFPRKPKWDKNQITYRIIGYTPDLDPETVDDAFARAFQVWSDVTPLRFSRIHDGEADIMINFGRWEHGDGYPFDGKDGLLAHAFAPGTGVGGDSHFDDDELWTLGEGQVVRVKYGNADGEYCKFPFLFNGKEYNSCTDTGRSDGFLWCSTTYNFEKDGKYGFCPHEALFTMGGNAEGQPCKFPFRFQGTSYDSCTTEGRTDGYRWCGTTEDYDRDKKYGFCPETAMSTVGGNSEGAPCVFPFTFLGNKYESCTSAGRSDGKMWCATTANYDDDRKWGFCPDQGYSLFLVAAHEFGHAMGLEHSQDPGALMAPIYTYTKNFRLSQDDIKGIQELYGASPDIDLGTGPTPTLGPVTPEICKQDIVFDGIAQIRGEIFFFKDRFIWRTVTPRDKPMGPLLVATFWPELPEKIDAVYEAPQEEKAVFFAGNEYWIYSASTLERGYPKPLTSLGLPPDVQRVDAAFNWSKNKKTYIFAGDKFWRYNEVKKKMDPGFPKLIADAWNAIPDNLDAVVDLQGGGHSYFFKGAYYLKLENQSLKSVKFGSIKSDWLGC

MMP-14 = target: T4, MMP-14 (Homo sapiens, UniProt P50281); experiment: MMP-14 inhibition (in vitro Ki)
T4 construct: The catalytic domain enzyme was expressed in E. coli inclusion bodies, solubilized in urea; made in house

MMP-9 = target: T5, MMP-9 (Homo sapiens, UniProt P14780); experiment: MMP-9 inhibition (in vitro Ki)
T5 construct: made in house; host or cells: MMP-9-transfected HT1080 cells (spent media)

[1] = Table 9, read-out: MMP-1 Ki (IC-50)
[2] = Table 9, read-out: MMP-13 Ki (IC-50)
[3] = Table 9, read-out: MMP-2 Ki (IC-50)
[4] = Table 9, read-out: MMP-14 Ki (IC-50)
[5] = Table 9, read-out: MMP-9 Ki (IC-50)

T5 sequence (P14780 107-707 limits assumed): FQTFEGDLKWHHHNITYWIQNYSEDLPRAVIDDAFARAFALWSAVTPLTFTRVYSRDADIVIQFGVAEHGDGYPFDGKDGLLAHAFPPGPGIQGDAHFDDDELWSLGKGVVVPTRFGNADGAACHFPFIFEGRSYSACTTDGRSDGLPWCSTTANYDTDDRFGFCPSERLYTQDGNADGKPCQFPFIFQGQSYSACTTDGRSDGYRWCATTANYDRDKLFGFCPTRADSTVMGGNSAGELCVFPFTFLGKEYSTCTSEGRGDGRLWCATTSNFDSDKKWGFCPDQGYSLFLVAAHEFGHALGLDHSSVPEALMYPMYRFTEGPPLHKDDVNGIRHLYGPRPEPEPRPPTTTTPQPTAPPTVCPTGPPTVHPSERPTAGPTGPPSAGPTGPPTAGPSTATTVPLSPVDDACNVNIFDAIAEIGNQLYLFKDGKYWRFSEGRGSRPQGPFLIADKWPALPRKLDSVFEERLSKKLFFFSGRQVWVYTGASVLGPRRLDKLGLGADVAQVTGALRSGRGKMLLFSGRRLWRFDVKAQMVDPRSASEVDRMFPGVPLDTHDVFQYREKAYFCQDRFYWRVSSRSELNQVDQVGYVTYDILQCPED

| Structure (SMILES) | Ki (MMP-1; [1]) | Ki (MMP-13; [2]) | Ki (MMP-2; [3]) | Ki (MMP-14; [4]) | Ki (MMP-9; [5]) | Ki (MMP-1; Table 8, read-out: MMP-1 Ki) | Ki (MMP-13; Table 8, read-out: MMP-13 Ki) | Ki (MMP-2; Table 8, read-out: MMP-2 Ki) | Ki (MMP-14; Table 8, read-out: MMP-14 Ki) | Ki (MMP-9; Table 8, read-out: MMP-9 Ki) |
| --- | --- | --- | --- | --- | --- | --- | --- | --- | --- | --- |
| O=C(NO)C1(S(=O)(=O)N2CCC(OCCCc3ccccc3)CC2)CCOCC1 [Example A36G] | – | – | – | – | – | > 10000 nM | 30.2 nM | 31.1 nM | 2610 nM | 16.4 nM |
| CC(C)(C)CCOC1CCN(S(=O)(=O)C2(C(=O)NO)CCOCC2)CC1 [Example A36E] | – | – | – | – | – | > 10000 nM | 65.8 nM | 112 nM | 4250 nM | 365 nM |
| O=C(NO)C1(S(=O)(=O)N2CCC(c3ccc(OCC(F)(F)C(F)(F)F)cn3)CC2)CCOCC1 [Example A58, N-hydroxy-4-({4-[5-(2,2,3,3,3-pentafluoropropoxy)pyridin-2-yl]piperidin-1-yl}sulfonyl)tetrahydro-2H-pyran-4-carboxamide Hydrochloride] | – | – | – | – | – | 1550 nM | 0.24 nM | 0.52 nM | 6230 nM | 1.37 nM |
| O=C(NO)C1(S(=O)(=O)N2CCN(c3ccc(CCC(F)(F)C(F)(F)F)cn3)CC2)CCOCC1 [Example A190] | > 10000 nM | 0.22 nM | 0.39 nM | 3350 nM | 1.09 nM | – | – | – | – | – |
| CN(C(=O)CCCN1CCN(S(=O)(=O)C2(C(=O)NO)CCOCC2)CC1)C1CCCCC1 [Example A130] | > 10000 nM | 2910 nM | > 10000 nM | > 10000 nM | > 10000 nM | – | – | – | – | – |
| O=C(NO)C1(S(=O)(=O)N2CCC(c3cnc(CCC(F)(F)C(F)(F)F)cn3)CC2)CCOCC1 [Example A65, N-hydroxy-4-({4-[5-(3,3,4,4,4-pentafluorobutyl)pyrazin-2-yl]piperidin-1-yl}sulfonyl)tetrahydro-2H-pyran-4-carboxamide] | – | – | – | – | – | > 10000 nM | 0.47 nM | 2.15 nM | 3870 nM | 0.19 nM |
| O=C(NO)C1(S(=O)(=O)N2CCC(c3ccc(CCc4ccccc4)cn3)CC2)CCOCC1 [Example A100] | > 10000 nM | 0.45 nM | 5.27 nM | 1770 nM | 13.2 nM | – | – | – | – | – |
| CCC(CC)(C(=O)NO)S(=O)(=O)N1CCC(c2ccc(CCC(F)(F)C(F)(F)F)cn2)CC1 [Example A60, 2-ethyl-N-hydroxy-2-({4-[5-(3,3,4,4,4-pentafluorobutyl)pyridin-2-yl]piperidin-1-yl}sulfonyl)butanamide Hydrochloride] | – | – | – | – | – | 9180 nM | 0.4 nM | 1.23 nM | 6070 nM | 0.63 nM |
| O=C(/C=C/C=C/C1CCN(S(=O)(=O)C2(C(=O)NO)CCOCC2)CC1)N1CCN(c2ccccc2)CC1 [Example A76] | > 10000 nM | 6.79 nM | 356 nM | > 10000 nM | 1780 nM | – | – | – | – | – |
| COCCCc1ccc(C2CCN(S(=O)(=O)C3(C(=O)NO)CCOCC3)CC2)nc1 [Example A166] | > 10000 nM | 1.03 nM | 1.93 nM | 5060 nM | 1.77 nM | – | – | – | – | – |
| CCCN(C(=O)CCCC1CCN(S(=O)(=O)C2(C(=O)NO)CCOCC2)CC1)c1ccccc1 [Example A145] | > 10000 nM | 23 nM | 26.3 nM | 6520 nM | 15.2 nM | – | – | – | – | – |
| O=C(NO)C1(S(=O)(=O)N2CCC(c3ccc(CCC(F)(F)C(F)(F)F)cn3)CC2)CCCCC1 [Example A56, N-hydroxy-1-({4-[5-(3,3,4,4,4-pentafluorobutyl)pyridin-2-yl]piperidin-1-yl}sulfonyl)cyclohexanecarboxamide Hydrochloride] | – | – | – | – | – | 2470 nM | 0.14 nM | 0.47 nM | 1010 nM | 0.15 nM |
| CCS(=O)(=O)c1ccc(N2CCN(S(=O)(=O)C3(C(=O)NO)CCOCC3)CC2)cc1 [Example A164] | > 10000 nM | 42.2 nM | 63 nM | > 10000 nM | 2970 nM | – | – | – | – | – |
| O=C(NO)C1(S(=O)(=O)N2CCC(CCCCOCCCC(F)(F)F)CC2)CCOCC1 [Example A40, 4-{4-[4-(4,4,4-trifluoro-butoxy)-butyl]-piperidine-1-sulfonyl}-tetrahydro-pyran-4-carboxylic Acid Hydroxyamide] | – | – | – | – | – | 4260 nM | 0.6 nM | 6.99 nM | 3420 nM | 46.4 nM |
| O=C(NO)C1(S(=O)(=O)N2CCC(c3ccc(COCC(F)(F)F)cn3)CC2)CCOCC1 [Example A173] | > 10000 nM | 1.91 nM | 7.59 nM | > 10000 nM | 1.84 nM | – | – | – | – | – |
| CCCCOCCOC1CCN(S(=O)(=O)C2(C(=O)NO)CCOCC2)CC1 [Example A36H] | – | – | – | – | – | > 10000 nM | 70.5 nM | 60.1 nM | > 10000 nM | 45.7 nM |
| CCCCOCCC1CCN(S(=O)(=O)C2(C(=O)NO)CCOCC2)CC1 [Example A44, 4-[4-(2-butoxy-ethyl)-piperidine-1-sulfonyl]-tetrahydro-pyran-4-carboxylic Acid Hydroxyamide] | – | – | – | – | – | > 10000 nM | 38.2 nM | 27.3 nM | > 10000 nM | 12.5 nM |
| O=C(CCCCN1CCN(S(=O)(=O)C2(C(=O)NO)CCOCC2)CC1)c1ccc(OC(F)(F)F)cc1 [Example A150] | > 10000 nM | 19.8 nM | 243 nM | > 10000 nM | 1030 nM | – | – | – | – | – |

Second part, the molecule after the results:

| Ki (MMP-1; [1]) | Ki (MMP-13; [2]) | Ki (MMP-2; [3]) | Ki (MMP-14; [4]) | Ki (MMP-9; [5]) | Ki (MMP-1; Table 8, read-out: MMP-1 Ki) | Ki (MMP-13; Table 8, read-out: MMP-13 Ki) | Ki (MMP-2; Table 8, read-out: MMP-2 Ki) | Ki (MMP-14; Table 8, read-out: MMP-14 Ki) | Ki (MMP-9; Table 8, read-out: MMP-9 Ki) | Structure (SMILES) |
| --- | --- | --- | --- | --- | --- | --- | --- | --- | --- | --- |
| 5370 nM | 4.53 nM | 3.5 nM | 9300 nM | 10.2 nM | – | – | – | – | – | C/C(COc1ccc(C2CCN(S(=O)(=O)C3(C(=O)NO)CCOCC3)CC2)nc1)=N/O [Example A169] |
| > 10000 nM | 5.25 nM | 2.36 nM | 4330 nM | 9.85 nM | – | – | – | – | – | CC(F)(F)Cc1ccc(C2CCN(S(=O)(=O)C3(C(=O)NO)CCOCC3)CC2)nc1 [Example A152] |
| > 10000 nM | 6.81 nM | 3.83 nM | 3360 nM | 0.88 nM | – | – | – | – | – | COCc1ccc(C2CCN(S(=O)(=O)C3(C(=O)NO)CCOCC3)CC2)nc1 [Example A177] |
| 2290 nM | 1.72 nM | 1.7 nM | 8570 nM | 1.5 nM | – | – | – | – | – | CC(F)(F)COc1ccc(C2CCN(S(=O)(=O)C3(C(=O)NO)CCOCC3)CC2)nc1 [Example A168] |
| 924 nM | 0.21 nM | 0.23 nM | 421 nM | 0.55 nM | – | – | – | – | – | CCn1nnc(-c2ccc(N3CCN(S(=O)(=O)C4(C(=O)NO)CCOCC4)CC3)cc2)n1 [Example A186] |
| 4710 nM | 2.09 nM | 4.7 nM | 2820 nM | 8.24 nM | – | – | – | – | – | Cc1cnn(-c2ccc(C3CCN(S(=O)(=O)C4(C(=O)NO)CCOCC4)CC3)nc2)c1 [Example A193] |
| > 10000 nM | 21.8 nM | 70 nM | > 10000 nM | 2.02 nM | – | – | – | – | – | CCCCc1cnc(C2CCN(S(=O)(=O)C3(C(=O)NO)CCOCC3)CC2)nc1 [Example A196] |
| 2340 nM | 0.17 nM | 0.5 nM | 401 nM | 0.15 nM | – | – | – | – | – | CCCC#Cc1ccc(C2CCN(S(=O)(=O)C3(C(=O)NO)CCOCC3)CC2)nc1 [Example A139] |
| 2170 nM | 0.23 nM | 0.52 nM | 1130 nM | 0.18 nM | – | – | – | – | – | O=C(NO)C1(S(=O)(=O)N2CCC(c3ccc(CCC(F)(F)F)cn3)CC2)CCCC1 [Example A105] |
| 7170 nM | 1.48 nM | 2.29 nM | 5290 nM | 0.45 nM | – | – | – | – | – | CC(C)COc1cnc(C2CCN(S(=O)(=O)C3(C(=O)NO)CCOCC3)CC2)cn1 [Example A132] |
| 2780 nM | 2.01 nM | 38 nM | 5360 nM | 50.7 nM | – | – | – | – | – | O=C(CCCCC1CCN(S(=O)(=O)C2(C(=O)NO)CCOCC2)CC1)N1CC2CCCCC2C1 (stereo not drawn) [Example A88] |
| 1700 nM | 0.08 nM | 0.19 nM | 331 nM | 0.14 nM | – | – | – | – | – | O=C(NO)C1(S(=O)(=O)N2CCC(c3ccc(/C=C/C(F)(F)C(F)(F)F)cn3)CC2)CCOCC1 [Example A116] |
